Data taken from patent US20230390189A1, “OCULAR IMPLANT CONTAINING AN ACTIVE INGREDIENT” (OCULAR THERAPEUTIX, INC., priority 2020, published 2023).

Columns and labels:
[1] = cited from earlier work; for t1/2 in the human eye: in vivo
Solubility of axitinib = format: physicochemical
[2] = 1.25 mg intravitreal; cited from earlier work
[3] = test system: VEGF-induced vascular leakage; assay: VEGF challenge, vascular leakage scored by fluorescein angiography; format: in vivo, Dutch belted rabbits; conditions: 1.25 mg Avastin alone (group 3); similar degree as control

**Q.** With `CNC(=O)c1ccccc1Sc1ccc2c(/C=C/c3ccccn3)n[nH]c2c1` [axitinib, N-methyl-2-[3-((E)-2-pyridin-2-yl-vinyl)-1H-indazol-6-ylsulfanyl]-benzamide] as the compound, how does the “Clearance half-life (t1/2)” value ([1]; patients, oral (Rugo et al.)) read?
**A.** a few hours

**Q.** What about the “Solubility of axitinib in 25% ethanol/75% water mix (v/v)” value (Solubility of axitinib) of the same compound?
**A.** approximately 19 μg/mL

**Q.** For “Avastin: anti-VEGF therapeutic, 1.25 mg intravitreal”, which Half-life in rabbits [2] is on record?
**A.** 158 h

**Q.** And the “Vascular leakage after VEGF challenge, late” value [3]?
**A.** after 3 months vascular leakage re-occurred

**Q.** For “aflibercept: anti-VEGF agent, large molecule”, which “t1/2 in the human eye” value [1] is on record?
**A.** several days

**Q.** Which “t1/2 in the human eye” value [1] does the source give for “ranibizumab: anti-VEGF agent, large molecule” here?
**A.** several days
